Consider 21 compounds from patent publication US20250034150A1, “BTK INHIBITORS” (BIOGEN MA INC., priority 2021, published 2025).

One assay addresses T1, BTK (Homo sapiens, UniProt Q06187).
T1 construct: purchased Upstate 14-552
Briefly: In Vitro BTK Kinase Assay: Btk-PolyGAT-LS Assay. The class given is biochemical. The note with it: active BTK enzyme 0.25 nM, polyGAT 100 nM, 30 minutes, TRF readout; read-out: In Vitro BTK Kinase Assay IC50 Score. The method, then:
The purpose of the BTK in vitro assay is to determine compound potency against BTK through the measurement of IC50. Compound inhibition is measured after monitoring the amount of phosphorylation of a fluorescein-labeled polyGAT peptide (Invitrogen PV3611) in the presence of active BTK enzyme (Upstate 14-552), ATP, and inhibitor. The BTK kinase reaction was done in a black 96 well plate (costar 3694). For a typical assay, a 24 μL aliquot of a ATP/peptide master mix (final concentration; ATP […], polyGAT 100 nM) in kinase buffer (10 mM Tris-HCl pH 7.5, 10 mM MgCl2, 200 μM […], 5 mM DTT, 0.01% Triton X-100, and 0.2 mg/ml casein) is added to each well. Next, […] of a 4-fold, 40× compound titration in 100% DMSO solvent is added, followed by adding 15 μL of BTK enzyme mix in 1× kinase buffer (with a final concentration of 0.25 nM). The assay is incubated for 30 minutes before being stopped with 28 μL of a 50 mM EDTA solution. Aliquots (5 uL) of the kinase reaction are transferred to a low volume white 384 well plate (Coming 3674), and 5 μL of a 2× detection buffer (Invitrogen PV3574, with 4 nM Tb—PY20 antibody, Invitrogen PV3552) is added. The plate is covered and incubated for 45 minutes at room temperature. Time resolved fluorescence (TRF) on Molecular Devices M5 (332 nm excitation; 488 nm emission; 518 nm fluorescein emission) is measured. IC50 values are calculated using a four parameter fit with 100% enzyme activity determined from the DMSO control and 0% activity from the EDTA control.

The subject of assay [1] is CD69 expression on CD19+ B cells in human whole blood. Briefly: In Vitro whole blood CD69 Assay. The class given is cell-based. The settings on record: B-cell, read-out: In Vitro HWB CD69 Assay IC50 Score. The procedure:
Human heparinized venous blood from health donors was aliquoted into 96-well plate and “spiked” with serial dilutions of formula I compounds in DMSO or with DMSO without drug. The final concentration of DMSO in all wells was 0.1%. The plate was incubated at 37° C. for 30 min. Drug-containing samples were stimulated with 0.1 μg/mL mouse anti-human IgD-dextran (1A62) or 20 μg/mL polyclonal rabbit F(ab′)2 anti-human IgD. Phosphate-buffered saline (PBS) was added to the negative control unstimulated sample and the plates were incubated overnight (18 to 22 hours) at 37° C. Cells were stained with fluorochrome-conjugated anti-CD19 and anti-CD69 antibodies. Lyse/fix solution was used to remove red blood cells by hypotonic lysis and to fix the remaining cells, which were then analyzed by flow cytometry. CD19+ B cells were gated and analyzed for CD69 expression.

The mark [2] stands for this setting: human heparinized whole blood, anti-human IgD stimulation overnight, CD19+ B cells, flow cytometry.

Molecules are shown by their SMILES. Read-outs that look alike come from different tables or passages of the source.

T1 sequence (Q06187 whole entry): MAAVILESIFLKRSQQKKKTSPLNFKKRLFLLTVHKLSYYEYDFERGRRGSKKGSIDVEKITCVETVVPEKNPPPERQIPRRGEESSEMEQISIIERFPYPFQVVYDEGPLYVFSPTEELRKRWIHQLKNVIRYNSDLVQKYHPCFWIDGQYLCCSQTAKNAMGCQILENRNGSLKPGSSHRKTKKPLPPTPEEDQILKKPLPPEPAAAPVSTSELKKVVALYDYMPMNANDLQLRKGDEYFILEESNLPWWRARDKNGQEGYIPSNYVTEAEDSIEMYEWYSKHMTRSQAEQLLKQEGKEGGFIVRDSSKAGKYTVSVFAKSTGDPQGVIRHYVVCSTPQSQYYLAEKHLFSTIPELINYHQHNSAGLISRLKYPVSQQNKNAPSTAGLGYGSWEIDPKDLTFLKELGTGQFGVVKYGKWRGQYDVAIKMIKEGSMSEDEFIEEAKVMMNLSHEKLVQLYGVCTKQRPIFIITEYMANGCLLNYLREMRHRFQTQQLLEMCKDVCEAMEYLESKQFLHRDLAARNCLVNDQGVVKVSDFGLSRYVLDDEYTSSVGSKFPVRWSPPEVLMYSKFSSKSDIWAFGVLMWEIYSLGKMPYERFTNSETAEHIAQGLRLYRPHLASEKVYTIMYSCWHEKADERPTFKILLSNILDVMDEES

For orientation: IC50 means the point on the concentration scale where inhibition reaches its midpoint. For the compound `Cn1cc(-c2cn3nccc3c(-c3ccc4c(c3)CN(CC(F)(F)F)CC[C@H]4NC(=O)c3cn(C(C)(C)C)nn3)n2)cn1` [Example 40, (R)-1-(tert-butyl)-N-(8-(6-(1-methyl-1H-pyrazol-4-yl)pyrazolo[1,5-a]pyrazin-4-yl)-2-(2,2,2-trifluoroethyl)-2,3,4,5-tetrahydro-1H-benzo[c]azepin-5-yl)-1H-1,2,3-triazole-4-carboxamide], the IC50 on BTK is 0.001 to 0.01 µM; in assay [1] (setting [2]), below 1 µM.
For `Cc1cc(-c2nc(-c3cnn(C)c3)cn3nccc23)ccc1CNC(=O)c1cn(C(C)(C)C)nn1` [Example 16, 1-(tert-butyl)-N-(2-methyl-4-(6-(1-methyl-1H-pyrazol-4-yl)pyrazolo[1,5-a]pyrazin-4-yl)benzyl)-1H-1,2,3-triazole-4-carboxamide] the same measures were below 0.001 µM and below 1 µM.
For `Cc1cc(-c2nccn3nccc23)ccc1CNC(=O)c1noc(C(C)(C)C)n1` [Example 85, 5-(tert-butyl)-N-(2-methyl-4-(pyrazolo[1,5-a]pyrazin-4-yl)benzyl)-1,2,4-oxadiazole-3-carboxamide] the same measures were 0.001 to 0.01 µM and 1 to 10 µM.
`Cn1cc(-c2cc3nccn3c(-c3ccc(CNC(=O)c4nc(C(C)(C)C)no4)cc3)n2)cn1` [Example 64, 3-(tert-butyl)-N-(4-(7-(1-methyl-1H-pyrazol-4-yl)imidazo[1,2-c]pyrimidin-5-yl)benzyl)-1,2,4-oxadiazole-5-carboxamide]: the IC50 was below 0.001 µM on BTK and below 1 µM in assay [1] (setting [2]).
For `Cc1c(CNC(=O)c2noc(C(C)(C)C)n2)ccc(-c2nc(-c3cnn(C)c3)cn3nccc23)c1F` [Example 81, 5-(tert-butyl)-N-(3-fluoro-2-methyl-4-(6-(1-methyl-1H-pyrazol-4-yl)pyrazolo[1,5-a]pyrazin-4-yl)benzyl)-1,2,4-oxadiazole-3-carboxamide] the same measures were below 0.001 µM and below 1 µM.
For `Cn1cc(-c2cn3nccc3c(-c3ccc(CNC(=O)c4ccn(C(C)(C)C)n4)c(F)c3)n2)cn1` [Example 11, 1-(tert-butyl)-N-(2-fluoro-4-(6-(1-methyl-1H-pyrazol-4-yl)pyrazolo[1,5-a]pyrazin-4-yl)benzyl)-1H-pyrazole-3-carboxamide] the same measures were 0.001 to 0.01 µM and 1 to 10 µM.
The corresponding values for `Cn1cc(-c2cn3nccc3c(-c3ccc(CNC(=O)c4noc(C(C)(C)C)n4)c(F)c3)n2)cn1` [Example 117, 5-(tert-butyl)-N-(2-fluoro-4-(6-(1-methyl-1H-pyrazol-4-yl)pyrazolo[1,5-a]pyrazin-4-yl)benzyl)-1,2,4-oxadiazole-3-carboxamide] are below 0.001 µM and below 1 µM.
`Cn1cc(-c2cn3nccc3c(-c3ccc(CNC(=O)c4nc(C(C)(C)C)no4)cc3F)n2)cn1` [Example 108, 3-(tert-butyl)-N-(3-fluoro-4-(6-(1-methyl-1H-pyrazol-4-yl)pyrazolo[1,5-a]pyrazin-4-yl)benzyl)-1,2,4-oxadiazole-5-carboxamide]: the IC50 on BTK was below 0.001 µM; in assay [1] (setting [2]) it was below 1 µM.
As to `Cn1cc(-c2cc(-c3ccc(CNC(=O)c4nc(C(C)(C)CF)no4)c(F)c3)c3ccnn3c2)cn1` [Example 71, 3-(1-fluoro-2-methylpropan-2-yl)-N-(2-fluoro-4-(6-(1-methyl-1H-pyrazol-4-yl)pyrazolo[1,5-a]pyridin-4-yl)benzyl)-1,2,4-oxadiazole-5-carboxamide], the IC50 on BTK is below 0.001 µM; in assay [1] (setting [2]) it was below 1 µM.
For `Cc1cc(-c2nc(-c3cnn(C)c3)cc3nccn23)ccc1CNC(=O)c1noc(C(C)(C)C)n1` [Example 78, 5-(tert-butyl)-N-(2-methyl-4-(7-(1-methyl-1H-pyrazol-4-yl)imidazo[1,2-c]pyrimidin-5-yl)benzyl)-1,2,4-oxadiazole-3-carboxamide] the same measures were below 0.001 µM and below 1 µM.
For `Cn1cc(-c2cn3nccc3c(-c3ccc(CNC(=O)c4coc(C(C)(C)C)n4)cc3F)n2)cn1` [Example 109] the same measures were 0.001 to 0.01 µM and 1 to 10 µM.
The corresponding values for `CC(C)(C)n1nnc(C(=O)NCc2ccc(-c3nc(N4CCOCC4)cn4nccc34)cc2)n1` [Example 25, 2-(tert-butyl)-N-(4-(6-morpholinopyrazolo[1,5-a]pyrazin-4-yl)benzyl)-2H-tetrazole-5-carboxamide] are 0.01 to 1 µM and 1 to 10 µM.
In the case of `Cn1cc(-c2cn3nccc3c(-c3ccc(CN4CCN(CC(C)(C)C)CC4=O)c(F)c3)n2)cn1` [Example 35, 1-(2-fluoro-4-(6-(1-methyl-1H-pyrazol-4-yl)pyrazolo[1,5-a]pyrazin-4-yl)benzyl)-4-neopentylpiperazin-2-one], the IC50 at BTK lay in the range of 0.001 to 0.01 µM; in assay [1] (setting [2]) it was 1 to 10 µM.
For `Cn1cc(-c2cn3nccc3c(-c3ccc(CNC(=O)c4noc(C(C)(C)CF)n4)cc3)n2)cn1` [Example 22, 5-(1-fluoro-2-methylpropan-2-yl)-N-(4-(6-(1-methyl-1H-pyrazol-4-yl)pyrazolo[1,5-a]pyrazin-4-yl)benzyl)-1,2,4-oxadiazole-3-carboxamide] the same measures were below 0.001 µM and below 1 µM.
For `Cn1cc(-c2cn3nccc3c(-c3ccc(CNC(=O)c4noc(C(C)(C)C)n4)c(F)c3F)n2)cn1` [Example 88, 5-(tert-butyl)-N-(2,3-difluoro-4-(6-(1-methyl-1H-pyrazol-4-yl)pyrazolo[1,5-a]pyrazin-4-yl)benzyl)-1,2,4-oxadiazole-3-carboxamide] the same measures were below 0.001 µM and below 1 µM.
`Cn1cc(-c2cn3nccc3c(N3CCC(CNC(=O)c4noc(C(C)(C)C)n4)CC3)n2)cn1` [Example 136, 5-(tert-butyl)-N-((1-(6-(1-methyl-1H-pyrazol-4-yl)pyrazolo[1,5-a]pyrazin-4-yl)piperidin-4-yl)methyl)-1,2,4-oxadiazole-3-carboxamide]: the IC50 was 0.001 to 0.01 µM at BTK and below 1 µM in assay [1] (Homo sapiens).
Take `Cn1cc(-c2cc(-c3ccc(CNC(=O)c4cn(C(C)(C)C)nn4)c(F)c3)c3ccnn3c2)cn1` [Example 69, 1-(tert-butyl)-N-(2-fluoro-4-(6-(1-methyl-1H-pyrazol-4-yl)pyrazolo[1,5-a]pyridin-4-yl)benzyl)-1H-1,2,3-triazole-4-carboxamide]: the half-maximal inhibitory concentration (IC50) is below 0.001 µM on BTK and below 1 µM in assay [1] (setting [2]).
The corresponding values for `Cn1cc(-c2cn3nccc3c(-c3ccc(CNC(=O)c4cnn(C(C)(C)C)c4)c(C(F)F)c3)n2)cn1` [Example 107, 1-(tert-butyl)-N-(2-(difluoromethyl)-4-(6-(1-methyl-1H-pyrazol-4-yl)pyrazolo[1,5-a]pyrazin-4-yl)benzyl)-1H-pyrazole-4-carboxamide] are below 0.001 µM and below 1 µM.
The corresponding values for `Cn1cc(-c2cn3nccc3c(-c3ccc(CNC(=O)c4noc(C5(C)CC5)n4)cc3)n2)cn1` [Example 5, N-(4-(6-(1-methyl-1H-pyrazol-4-yl)pyrazolo[1,5-a]pyrazin-4-yl)benzyl)-5-(1-methylcyclopropyl)-1,2,4-oxadiazole-3-carboxamide] are below 0.001 µM and below 1 µM.
The corresponding values for `Cn1cc(-c2cn3nccc3c(-c3ccc(CNC(=O)c4nc(C(C)(C)C)no4)c(C(F)F)c3)n2)cn1` [Example 100, 3-(tert-butyl)-N-(2-(difluoromethyl)-4-(6-(1-methyl-1H-pyrazol-4-yl)pyrazolo[1,5-a]pyrazin-4-yl)benzyl)-1,2,4-oxadiazole-5-carboxamide] are below 0.001 µM and below 1 µM.
With `Cn1cc(-c2cn3nccc3c(-c3ccc(CNC(=O)c4noc(C(C)(C)C)n4)nc3)n2)cn1` [Example 116, 5-(tert-butyl)-N-((5-(6-(1-methyl-1H-pyrazol-4-yl)pyrazolo[1,5-a]pyrazin-4-yl)pyridin-2-yl)methyl)-1,2,4-oxadiazole-3-carboxamide], the concentration for half-maximal inhibition (IC50) is 0.001 to 0.01 µM on BTK and 1 to 10 µM in assay [1] (setting [2]).
